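Tested at 5 concentrations; 48 h exposure; 96-well plates; endpoints linearly interpolated, else capped at highest concentration. Abbreviation: GI50, concentration required for 50% inhibition of growth.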 Calls of active or inactive are those of the source. Cut-off read from the data, not from the text of the source: active = GI50 up to about 1.1 µM and inactive = higher.
Experiments:
Assay in all cases: inhibition of tumour cell growth, NCI panel, 48 h
786-0 = system: 786-0
A498 = system: A498
A549 = system: A549
ACHN = system: ACHN
BT-549 = system: BT-549
CAKI-1 = system: CAKI-1
COLO 205 = system: COLO 205
DU-145 = system: DU-145
HCC 2998 = system: HCC 2998
HCT-116 = system: HCT-116
HCT-15 = system: HCT-15
HOP-92 = system: HOP-92
HT-29 = system: HT-29
Hs-578T = system: Hs-578T
K562 = system: K562
KM12 = system: KM12
LOX IMVI = system: LOX IMVI
MDA-MB-231 = system: MDA-MB-231
MDA-MB-435 = system: MDA-MB-435
MDA-N = system: MDA-N
NCI-H226 = system: NCI-H226
NCI-H23 = system: NCI-H23
NCI-H460 = system: NCI-H460
NCI/ADR-RES = system: NCI/ADR-RES
OVCAR-4 = system: OVCAR-4
OVCAR-8 = system: OVCAR-8
PC-3 = system: PC-3
RPMI-8226 = system: RPMI-8226
SF-268 = system: SF-268
SK-MEL-28 = system: SK-MEL-28
SK-MEL-2 = system: SK-MEL-2
SK-MEL-5 = system: SK-MEL-5
SN12C = system: SN12C
SNB-19 = system: SNB-19
SNB-75 = system: SNB-75
SR = system: SR
SW-620 = system: SW-620
T47D = system: T47D
TK-10 = system: TK-10
U-251 = system: U-251
UACC-257 = system: UACC-257
UACC-62 = system: UACC-62
UO-31 = system: UO-31
CCRF-CEM = system: CCRF-CEM
EKVX = system: EKVX
HL-60 = system: HL-60
HOP-62 = system: HOP-62
IGROV-1 = system: IGROV-1
M14 = system: M14
MOLT-4 = system: MOLT-4
Malme-3M = system: Malme-3M
NCI-H522 = system: NCI-H522
OVCAR-3 = system: OVCAR-3
OVCAR-5 = system: OVCAR-5
RXF 393 = system: RXF 393
SF-295 = system: SF-295
SF-539 = system: SF-539
SK-OV-3 = system: SK-OV-3
MCF7 = system: MCF7

COc1cc(OC)cc(-n2c(N)c(C#N)c3ccc([N+](=O)[O-])cc3c2=O)c1
GI50 (786-0): 19 µM (inactive) | GI50 (A498): 20 µM (inactive) | GI50 (A549): 43.4 µM (inactive) | GI50 (ACHN): 28.3 µM (inactive) | GI50 (BT-549): 31.2 µM (inactive) | GI50 (CAKI-1): 30.8 µM (inactive) | GI50 (COLO 205): > 100 µM (inactive) | GI50 (DU-145): 20.8 µM (inactive) | GI50 (HCC 2998): 84.1 µM (inactive) | GI50 (HCT-116): 93.5 µM (inactive) | GI50 (HCT-15): > 100 µM | GI50 (HOP-92): 19.1 µM (inactive) | GI50 (HT-29): > 100 µM (inactive) | GI50 (Hs-578T): 24.2 µM (inactive) | GI50 (K562): 22.6 µM (inactive) | GI50 (KM12): > 100 µM (inactive) | GI50 (LOX IMVI): > 100 µM (inactive) | GI50 (MDA-MB-231): 37.5 µM (inactive) | GI50 (MDA-MB-435): 63.2 µM (inactive) | GI50 (MDA-N): 80 µM (inactive) | GI50 (NCI-H226): 23.9 µM (inactive) | GI50 (NCI-H23): 36.4 µM (inactive) | GI50 (NCI-H460): 30.8 µM (inactive) | GI50 (NCI/ADR-RES): 41.8 µM (inactive) | GI50 (OVCAR-4): 16.6 µM (inactive) | GI50 (OVCAR-8): 18.7 µM (inactive) | GI50 (PC-3): 41.3 µM (inactive) | GI50 (RPMI-8226): 85.7 µM (inactive) | GI50 (SF-268): 32.4 µM (inactive) | GI50 (SK-MEL-28): 43.1 µM (inactive) | GI50 (SK-MEL-2): 41.2 µM (inactive) | GI50 (SK-MEL-5): 30.3 µM (inactive) | GI50 (SN12C): 20.4 µM (inactive) | GI50 (SNB-19): 17.5 µM (inactive) | GI50 (SNB-75): 19.7 µM (inactive) | GI50 (SR): 14.2 µM (inactive) | GI50 (SW-620): > 100 µM (inactive) | GI50 (T47D): 33.7 µM (inactive) | GI50 (TK-10): 34.2 µM (inactive) | GI50 (U-251): 22.9 µM (inactive) | GI50 (UACC-257): 35 µM (inactive) | GI50 (UACC-62): 27.3 µM (inactive) | GI50 (UO-31): 19.5 µM (inactive)

CCN(CC)C(=S)SS(=O)(=O)c1ccccc1[N+](=O)[O-]
GI50 (786-0): 18.6 µM (inactive) | GI50 (A498): > 56.6 µM (inactive) | GI50 (A549): 14.7 µM (inactive) | GI50 (ACHN): 43.8 µM (inactive) | GI50 (BT-549): > 51.2 µM (inactive) | GI50 (CAKI-1): 22.3 µM (inactive) | GI50 (CCRF-CEM): 2.51 µM (inactive) | GI50 (COLO 205): > 53.5 µM (inactive) | GI50 (DU-145): 27.3 µM (inactive) | GI50 (EKVX): > 100 µM (inactive) | GI50 (HCC 2998): > 49.2 µM (inactive) | GI50 (HCT-116): 18.2 µM (inactive) | GI50 (HCT-15): 57.9 µM | GI50 (HL-60): 2.47 µM (inactive) | GI50 (HOP-62): 22 µM (inactive) | GI50 (HOP-92): 24 µM (inactive) | GI50 (HT-29): 16.9 µM (inactive) | GI50 (Hs-578T): 31.1 µM (inactive) | GI50 (IGROV-1): 0.504 µM (active) | GI50 (K562): 11.7 µM (inactive) | GI50 (KM12): > 35.4 µM (inactive) | GI50 (LOX IMVI): 17.3 µM (inactive) | GI50 (M14): 25 µM (inactive) | GI50 (MDA-MB-231): 18.1 µM (inactive) | GI50 (MDA-MB-435): 21.7 µM (inactive) | GI50 (MDA-N): 38.9 µM (inactive) | GI50 (MOLT-4): 0.415 µM (active) | GI50 (Malme-3M): 10.2 µM (inactive) | GI50 (NCI-H226): > 60 µM (inactive) | GI50 (NCI-H23): > 54 µM (inactive) | GI50 (NCI-H460): 25.1 µM (inactive) | GI50 (NCI-H522): 0.404 µM (active) | GI50 (NCI/ADR-RES): 41.3 µM (inactive) | GI50 (OVCAR-3): 22.2 µM (inactive) | GI50 (OVCAR-4): 44.3 µM (inactive) | GI50 (OVCAR-5): > 50.4 µM (inactive) | GI50 (OVCAR-8): 22.9 µM (inactive) | GI50 (PC-3): 54.5 µM (inactive) | GI50 (RPMI-8226): 15.2 µM (inactive) | GI50 (RXF 393): 20.8 µM (inactive) | GI50 (SF-268): 30.7 µM (inactive) | GI50 (SF-295): 31.8 µM (inactive) | GI50 (SF-539): 19.9 µM (inactive) | GI50 (SK-MEL-28): 18.7 µM (inactive) | GI50 (SK-MEL-2): > 76.7 µM (inactive) | GI50 (SK-MEL-5): 5.83 µM (inactive) | GI50 (SK-OV-3): > 71.4 µM (inactive) | GI50 (SN12C): 22 µM (inactive) | GI50 (SNB-19): > 53.7 µM (inactive) | GI50 (SNB-75): 76.2 µM (inactive) | GI50 (SR): 0.359 µM (active) | GI50 (SW-620): 20.9 µM (inactive) | GI50 (T47D): 28.1 µM (inactive) | GI50 (TK-10): 31.9 µM (inactive) | GI50 (U-251): 21.7 µM (inactive) | GI50 (UACC-257): 36.8 µM (inactive) | GI50 (UACC-62): 35 µM (inactive) | GI50 (UO-31): 14.5 µM (inactive)

COC(=O)C1=C2Nc3ccccc3C23CCN2C(O)C4(CC5CC67CCOC6CCN6CCC8(c9cccc(OC)c9N(C4)C58O)C67)C4OCCC4(C1)C23 (stereo not drawn)
GI50 (786-0): 24.3 µM (inactive) | GI50 (A498): 64.3 µM (inactive) | GI50 (A549): > 100 µM (inactive) | GI50 (ACHN): 86.5 µM (inactive) | GI50 (BT-549): > 100 µM (inactive) | GI50 (CAKI-1): 25.2 µM (inactive) | GI50 (CCRF-CEM): > 100 µM (inactive) | GI50 (COLO 205): > 100 µM (inactive) | GI50 (DU-145): 36.3 µM (inactive) | GI50 (EKVX): 52.8 µM (inactive) | GI50 (HCC 2998): > 100 µM (inactive) | GI50 (HCT-116): 34.5 µM (inactive) | GI50 (HCT-15): > 100 µM | GI50 (HL-60): > 100 µM (inactive) | GI50 (HOP-62): 44.2 µM (inactive) | GI50 (HOP-92): 27.2 µM (inactive) | GI50 (HT-29): > 100 µM (inactive) | GI50 (Hs-578T): 22.5 µM (inactive) | GI50 (IGROV-1): 87.7 µM (inactive) | GI50 (K562): > 100 µM (inactive) | GI50 (KM12): 78.9 µM (inactive) | GI50 (LOX IMVI): 95.5 µM (inactive) | GI50 (M14): 71.9 µM (inactive) | GI50 (MCF7): 47.2 µM (inactive) | GI50 (MDA-MB-231): 15.6 µM (inactive) | GI50 (MDA-MB-435): 58.7 µM (inactive) | GI50 (MDA-N): 98.2 µM (inactive) | GI50 (Malme-3M): 56.4 µM (inactive) | GI50 (NCI-H226): 87.9 µM (inactive) | GI50 (NCI-H23): > 100 µM (inactive) | GI50 (NCI-H460): 76.7 µM (inactive) | GI50 (NCI-H522): 36.4 µM (inactive) | GI50 (OVCAR-3): > 100 µM (inactive) | GI50 (OVCAR-4): 61.9 µM (inactive) | GI50 (OVCAR-5): > 100 µM (inactive) | GI50 (OVCAR-8): 23.5 µM (inactive) | GI50 (PC-3): 34.8 µM (inactive) | GI50 (RPMI-8226): > 100 µM (inactive) | GI50 (RXF 393): 49.7 µM (inactive) | GI50 (SF-268): 26.1 µM (inactive) | GI50 (SF-295): 34.6 µM (inactive) | GI50 (SF-539): > 100 µM (inactive) | GI50 (SK-MEL-28): 97.5 µM (inactive) | GI50 (SK-MEL-2): 84.1 µM (inactive) | GI50 (SK-MEL-5): 49.5 µM (inactive) | GI50 (SK-OV-3): 68.5 µM (inactive) | GI50 (SN12C): 79.8 µM (inactive) | GI50 (SNB-19): 45.7 µM (inactive) | GI50 (SNB-75): 23.5 µM (inactive) | GI50 (SR): 14.7 µM (inactive) | GI50 (SW-620): 62.4 µM (inactive) | GI50 (T47D): 20.3 µM (inactive) | GI50 (TK-10): > 100 µM (inactive) | GI50 (U-251): 35.6 µM (inactive) | GI50 (UACC-257): > 100 µM (inactive) | GI50 (UACC-62): > 100 µM (inactive) | GI50 (UO-31): > 100 µM (inactive)
